Counter-ions that a name gives are not always drawn. Like-named read-outs stand apart in the source and are kept apart here.
Tests used:
β-lactamase = target: T1, β-lactamase (Citrobacter freundii, UniProt P05193); assay: biochemical
T1 construct: Various β-lactamases can be isolated from penicillin- or cephalosporin-resistant bacterial strains such as; endogenous in cells; host or cells: Citrobacter freundii 1203 (enzyme purified from the crude cell extract, after ampicillin induction when necessary)
Method: A. Isolation of the β-lactamases
Various β-lactamases can be isolated from penicillin- or cephalosporin-resistant bacterial strains such as Klebsiella pneumoniae NCTC 418, Proteus vulgaris 1028, Bacillus licheniformis 749/C, Escherichia coli SN01 and Citrobacter freundii 1203. For this purpose, the corresponding strains are cultivated in Tryptic Soy Broth (Difco) and harvested by centrifugation in the last logarithmic growth phase (when necessary 50-100 mg/l of ampicillin are added to the medium towards the end of the log-phase in order to induce the β-lactamase). The thus-obtained bacterial mass is treated with 20 mM Tris-HCl buffer (pH 7.0); the cells are broken open with a French press while cooling. The mixture is centrifuged (20,000 r/min.) for 20-30 minutes and a clear crude extract is obtained.
B. Determination of the β-lactamase activity
The determination of the activity of the isolated β-lactamases can be carried out according to the method of O'Callaghan, C. H. et al. [Antimicr. Ag. Chemother., 1, 283-288 (1972)] using the chromogenic cephalosporin nitrocefin (87/312 from Glaxo). The requisite test batch contains per ml of water: 50 mM phosphate buffer (pH 7.0), 0.1 mM nitrocefin and sufficient enzyme (β-lactamase) to achieve a ΔA/min. of about 0.1. The cleavage of the substrate, which is accompanied by a change in colour, is effected at 37° C. and is followed quantitatively at 482 nm using a spectral photometer.
C. Determination of the β-lactamase-inhibiting activity of the compounds of general formula I
The above-described cleavage of the chromogenic substrate by β-lactamases (test B.) can be inhibited by the addition of compounds of general formula I (inhibitors). […] As a measurement for the affinity of the particular tested inhibitor to the β-lactamase, which is a measurement of the strength of the inhibitor, there serves that concentration which inhibits by 50% (IC 50 in nM) the cleavage of the substrate (nitrocefin) effected under the above test conditions (test B) in the absence of an inhibitor. […] The determination of the IC50 was effected by means of a graph.
(Test organism: Citrobacter freundii)

Citrobacter freundii = assay: MIC in vitro of a 1:4 combination of ceftriaxone with a compound of formula I (test D); assay type: cell-based; conditions: 1:4 combination of ceftriaxone with the compound
Method: D. Determination of the β-lactamase-inhibiting activity by combination of a compound of general formula I with ceftriaxone
The minimum inhibitory concentration in vitro (MIC in μg/ml) of a 1:4 combination of ceftriaxone with a compound of formula I against Citrobacter freundii is measured and compiled in Table 2 hereinafter.

[1] = isolated β-lactamase of Citrobacter freundii, substrate nitrocefin 0.1 mM, 15 minutes pre-incubation with inhibitor, 37° C., pH 7.0, read-out: IC 50 nM
[2] = IC 50 nM, isolated β-lactamase of Citrobacter freundii, substrate nitrocefin 0.1 mM, 15 minutes pre-incubation with inhibitor, 37° C., pH 7.0

T1 sequence (P05193 21-381): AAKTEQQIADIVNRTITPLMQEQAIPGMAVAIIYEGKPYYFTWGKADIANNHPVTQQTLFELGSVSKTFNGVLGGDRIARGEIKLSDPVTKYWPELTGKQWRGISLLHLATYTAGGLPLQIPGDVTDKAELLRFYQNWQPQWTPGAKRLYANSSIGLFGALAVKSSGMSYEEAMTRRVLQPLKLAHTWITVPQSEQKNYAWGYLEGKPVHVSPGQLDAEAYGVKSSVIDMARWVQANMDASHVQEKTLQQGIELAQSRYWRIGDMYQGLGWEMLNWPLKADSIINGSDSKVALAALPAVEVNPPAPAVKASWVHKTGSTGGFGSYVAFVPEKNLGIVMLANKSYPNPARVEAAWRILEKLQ

| Compound | IC50 (β-lactamase) | MIC (Citrobacter freundii) | IC50 (β-lactamase; [1]) | IC50 (β-lactamase; [2]) |
| --- | --- | --- | --- | --- |
| N[C@@H](Cc1ccc(O)cc1)C(=O)N1CC[C@@H]2[C@H]1C(=O)N2S(=O)(=O)O [Example 6(b), (1S,5R)-7-Oxo-2-L-tyrosyl-2,6-diazabicyclo[3.2.0]heptane-6-sulphonic acid] | 310 nM | 4 µg/mL |  |  |
| Mixture of (1S,5R)-2-(5-Amino-1H-tetrazol-1-ylacetyl) and (1S,5R)-2-(5-Amino-2H-tetrazol-2-ylacetyl)-7-oxo-2,6-diazabicyclo[3.2.0]heptane-6-sulfonic acid sodium salt (1:2) [23(k)] |  | 2 µg/mL | 273 nM |  |
| O=C(Cn1cnnn1)N1CC[C@@H]2[C@H]1C(=O)N2S(=O)(=O)[O-].[Na+] [8(b), (1S,5R)-7-Oxo-2-(1H-tetrazol-1-ylacetyl)-2,6-diazabicyclo[3.2.0]heptane-6-sulphonic acid sodium salt] |  | 1 µg/mL |  | 500 nM |
| O=C(/C=C/c1cc[nH]n1)N1CC[C@@H]2[C@H]1C(=O)N2S(=O)(=O)[O-].[Na+] [23(e), (1S,5R)-7-Oxo-2-[(E)-3-pyrazol-3-yl-acryloyl]-2,6-diazabicyclo[3.2.0]heptane-6-sulfonic acid sodium salt] |  | 1 µg/mL |  | 138 nM |
| O=C(/C=C/c1c[nH]cn1)N1CC[C@@H]2[C@H]1C(=O)N2S(=O)(=O)[O-].[Na+] [8(d), (1S,5R)-2-[(E)-3-(4-Imidazolyl)acryloyl]-7-oxo-2,6-diazabicyclo[3.2.0]heptane-6-sulphonic acid sodium salt] |  | 0.5 µg/mL |  | 34 nM |
| O=C(CNc1ccc(O)cc1)N1CC[C@@H]2[C@H]1C(=O)N2S(=O)(=O)[O-].[Na+] [6(v), (1S,5R)-2-(4-Hydroxy-phenylaminoacetyl)-7-oxo-2,6-diazabicyclo[3.2.0]heptane-6-sulfonic acid sodium salt] |  | 8 µg/mL |  | 3.5 nM |
| O=C1SCC[C@H]1NC(=O)N1CC[C@@H]2[C@H]1C(=O)N2S(=O)(=O)O [17(u), (1S,5R)-7-Oxo-2-(R)-(2-oxo-3-tetrahydrothienyl-carbamoyl)-2,6-diazabicyclo[3.2.0]heptane-6-sulphonic acid sodium salt] | 62 nM | 2 µg/mL |  |  |
| O=C(/C=C/c1ccc(O)c(O)c1)N1CC[C@@H]2[C@H]1C(=O)N2S(=O)(=O)O [6(u), (1S,5R)-(E)-2-[3-(3,4Dihydroxy)phenyl)acryloyl)]-7-oxo-2,6-diazabicyclo[3.2.0]heptane-6-sulfonic acid sodium salt] | 40 nM | 2 µg/mL |  |  |
| O=C(OCc1cccs1)N1CC[C@@H]2[C@H]1C(=O)N2S(=O)(=O)[O-].[Na+] [17(n), (1S,5R)-7-Oxo-2-(thien-2-yl-methoxycarbonyl)-2,6-diazabicyclo[3.2.0]heptane-6-sulphonic acid sodium salt] |  | 16 µg/mL |  | 272 nM |
| (1S,5R)-2-[(2-Amino-4-thiazolyl)acetyl]-7-oxo-2,6-diazabicyclo[3.2.0]heptane-6-sulphonic acid triethylamine salt [6(o)] |  | 2 µg/mL | 350 nM |  |
| Nc1nc(CNC(=O)N2CC[C@@H]3[C@H]2C(=O)N3S(=O)(=O)[O-])cs1.[Na+] [17(ae), (1S,5R)-2-[2-Amino-thiazol-4-ylmethylcarbamoyl]-7-oxo-2,6-diazabicyclo[3.2.0]heptane-6-sulfonic acid sodium salt] |  | 1 µg/mL |  | 200 nM |
| O=C(CNc1cc[nH]c(=O)n1)N1CC[C@@H]2[C@H]1C(=O)N2S(=O)(=O)O [23(f), (1S,5R)-7-Oxo-(2-oxo-1,2-dihydro-pyrimidin-4-ylaminoacctyl)-2,6-diazabicyclo[3.2.0]heptane-6-sulfonic acid sodium salt] | 30 nM | 0.5 µg/mL |  |  |
| COC1=C(C(=O)O)N2C(=O)C3C2C(C1)CN3C(=O)OC(C)(C)C [Example 7, (1aS,3aR,6bR)-1,1a,3a,6b-Tetrahydro-5-methoxy-1-oxo-2,6a-diazacyclobuta[cd]indene-2,6(3H,4H)-dicarboxylic acid 2-t-butyl monoester] |  | 4 µg/mL | 505 nM |  |
| O=C(NCC1CCCCC1)N1CC[C@@H]2[C@H]1C(=O)N2S(=O)(=O)[O-].[Na+] [17(m), (1S,5R)-2-Cyclohexylmethylcarbamoyl-7-oxo-2,6-diazabicyclo[3.2.0]heptane-6-sulphonic acid sodium salt] |  | 16 µg/mL |  | 359 nM |
| N[C@@H](Cc1c[nH]c2ccccc12)C(=O)N1CC[C@@H]2[C@H]1C(=O)N2S(=O)(=O)O [6(h), (1S,5R)-7-Oxo-2-L-tryptophanyl-2,6-diazabicyclo[3.2.0]heptane-6-sulphonic acid] | 6 nM | 1 µg/mL |  |  |
| O=C(CSc1nc[nH]n1)N1CC[C@@H]2[C@H]1C(=O)N2S(=O)(=O)O [12(b), (1S,5R)-7-Oxo-2-(1,2,4-triazol-3-yl-thioacetyl)-2,6-diazabicyclo[3.2.0]heptan-6-sulphonic acid] |  | 2 µg/mL | 115 nM |  |
| N[C@H](C(=O)N1CC[C@@H]2[C@H]1C(=O)N2S(=O)(=O)O)c1ccccc1 [4(d), (1S,5R)-7-Oxo-2-(L-2-phenylglycyl)-2,6-diazabicyclo[3.2.0]heptane-6-sulphonic acid] | 275 nM | 2 µg/mL |  |  |
| O=C(CS(=O)(=O)c1ccc(O)c(O)c1)N1CC[C@@H]2[C@H]1C(=O)N2S(=O)(=O)O [Example 20, (1S,5R)-2-[[(3,4-Dihydroxyphenyl)sulphonyl]acetyl]-7-oxo-2,6-diazabicyclo[3.2.0]heptane-6-sulphonic acid sodium salt] |  | 4 µg/mL |  | 165 nM |
| O=C(Cc1cccnc1)N1CC[C@@H]2[C@H]1C(=O)N2S(=O)(=O)[O-].[Na+] [6(i), (1S,5R)-7-Oxo-2-(3-pyridylacetyl)-2,6-diazabicyclo[3.2.0]-heptane-6-sulphonic acid sodium salt] |  | 4 µg/mL |  | 700 nM |
| COc1cc(CNC(=O)N2CC[C@@H]3[C@H]2C(=O)N3S(=O)(=O)[O-])on1.[Na+] [17(aa), (1S,5R)-2-[3-Methoxy-isoxazol-5-ylmethylcarbamoyl]-7-oxo-2,6-diazabicyclo[3.2.0]heptane-6-sulfonic acid sodium salt] |  | 0.5 µg/mL |  | 75 nM |
| O=C(COn1nnc2ccccc21)N1CC[C@@H]2[C@H]1C(=O)N2S(=O)(=O)[O-].[Na+] [5(k), (1S,5R)-2-[[1H-Benzotriazol-1-yl)oxylacetyl]-7-oxo-2,6-diazabicyclo[3.2.0]-heptane-6-sulphonic acid sodium salt] |  | 2 µg/mL |  | 73 nM |
| CC(=O)Oc1ccc(/C=C/C(=O)N2CC[C@@H]3[C@H]2C(=O)N3S(=O)(=O)[O-])cc1OC(C)=O.[Na+] [Example 13, 4-[(E)-2-[[(1S,5R)-7-Oxo-6-sulpho-2,6-diazabicyclo[3.2.0]heptan-2-yl]carbonyl]vinyl]-o-phenylene diacetate sodium salt] |  | 4 µg/mL |  | 63 nM |
| O=C(CCc1ccccc1)N1CC[C@@H]2[C@H]1C(=O)N2S(=O)(=O)[O-].[Na+] [11(b), (1S,5R)-7-Oxo-2-(3-phenyl-propionyl)-2,6-diazabicyclo[3.2.0]heptane-6-sulphonic acid sodium salt] |  | 16 µg/mL |  | 573 nM |

From patent US6566355B1 (Hoffmann-La Roche Inc., priority 1991, dated 2003)
